The values that follow come from PMC9648375, “Identification of the first-in-class dual inhibitors of human DNA topoisomerase IIα and indoleamine-2,3-dioxygenase 1 (IDO 1) with strong anticancer properties” (Journal of Enzyme Inhibition and Medicinal Chemistry, 2022).

A word on the IC50: it is the concentration that gives 50% inhibition. A word on the melting point: it is the temperature of the solid-liquid transition.

SMILES strings stand for the structures. In brackets after ≈: the same amount, converted by molar mass.

Tested on in the first series: not listed separately
The experiment in a line: MTT assay. The settings on record: human, HEK-293 cells (normal reference cell line), HEK-293 (normal cells), 24h, read-out: IC50, cytotoxicity. It counts as cell-based. Here is the method:
(§1) Therefore, the whole set of compounds were tested by using MTT assay in order to check their overall cytotoxic effect. The growth of cells was monitored after 24 and 48 h of incubation with the increased concentrations (1–100 µg/ml) of the thiosemicarbazide derivatives. […] This confirms that the compounds tested combine different mechanisms of anticancer activity, and DNA topoisomerase II inhibition is only one of them.
(§2) Cytotoxicity of the synthesised compounds were examined against a panel of the cancer cell lines, MCF-7 (estrogen-dependent human breast cancer cells), MDA-MB-231 (oestrogen-independent human breast cancer cells), SCC- 25 (squamous cell carcinoma of the tongue), FaDu (squamous cell carcinoma of the pharynx), A- 549 (human lung carcinoma), AGS (human gastric adenocarcinoma), LS-180, HT-29 (colon cancer cell lines), T98G (glioblastoma cells), A375 (melanoma cells). Human embryonic kidney (HEK-293) cells and human normal skin fibroblasts (CRL-2072) were used as reference cell lines. The investigated cell lines were obtained from American Type Culture Collection (ATCC; Manassas, VA, USA). A375, MCF-7, MDA-MB-231, T98G cells were cultured in Dulbecco’s Modified Eagle’s Medium (DMEM) (Sigma Aldrich, St. Louis, MO, USA) supplemented with 10% heat inactivated foetal bovine serum (FBS), penicillin (100 U/mL), and streptomycin (100 μg/mL). SCC-25 cells were cultured in 1:1 mixture of Dulbecco’s modified Eagle’s medium and Ham’s F12 Medium (Sigma Aldrich, St. Louis, MO, USA) supplemented with 400 ng/ml hydrocortisone, 10% FBS, penicillin (100 U/mL), and streptomycin (100 μg/mL). A549 and AGS cells were maintained in F-12K Medium (Sigma Aldrich, St. Louis, MO, USA). LS-180 and FaDu cells were cultured in Eagle’s Minimum Essential Medium. HT-29 cells were maintained in McCoy’s 5 A Medium (Sigma Aldrich, St. Louis, MO, USA) supplemented with 10%FBS, penicillin (100 U/mL), and streptomycin (100 μg/mL). All the cells were maintained at 37 °C in a humidified atmosphere of 5% CO2.
(§3) The synthesised compounds were dissolved in DMSO in order to obtain stock solutions. At the day of the experiment, the suspension of cells (1 × 10^5 cells/mL) in the respective medium was applied to a 96-well plate at 100 μL per well. […] The control cells were cultured only with a medium containing 2% FBS. Cytotoxicity of DMSO was also checked at concentrations present in respective dilutions of stock solution. After 24 h (or 48 h) of incubation, 15 μL of MTT working solution (5 mg/mL in PBS) was added to each well. The plate was incubated for 3 h. Subsequently, 100 μL of 10% SDS solution was added to each well. Cells were incubated overnight at 37 °C to dissolve the precipitated formazan crystals. The concentration of the dissolved formazan was evaluated by measuring the absorbance at λ = 570 nm, using a microplate reader (Epoch, BioTek Instruments, Inc., Winooski, VT, USA). At least two independent experiments were performed in triplicates. The results of the MTT assay were expressed as mean ± SD. […] IC50 values of the investigated derivatives and standards were calculated using the IC50 calculator.[23]
Turning to `O=C(NNC(=S)Nc1c(F)cccc1F)c1ccccc1[N+](=O)[O-]` [Compound 4, 4-(2,6-Difluorophenyl)-1-(2-nitrobenzoyl)thiosemicarbazide], the IC50 at 24 h is over 100 µg/mL.

Still in this series, the particulars now being: human, HEK-293 cells (normal reference cell line), HEK-293 (normal cells), 48h, read-out: IC50, cytotoxicity.
Consider `O=C(NNC(=S)Nc1c(F)cccc1F)c1ccccc1[N+](=O)[O-]` [Compound 4, 4-(2,6-Difluorophenyl)-1-(2-nitrobenzoyl)thiosemicarbazide], for which the IC50 at 48 h was over 100 µg/mL.

The next series has as its system A375 (melanoma cells). The experiment in a line: MTT assay. The series is classed as cell-based. The settings on record: Homo sapiens, A-375, 24h, read-out: IC50, cytotoxicity. Here is the method: as §1, §2, §3
(In general: Tetrazolium assays rely on reduction of a dye to a coloured formazan, in cell work by metabolically active cells.)
Take `O=C(NNC(=S)Nc1c(F)cccc1F)c1ccccc1[N+](=O)[O-]` [Compound 4, 4-(2,6-Difluorophenyl)-1-(2-nitrobenzoyl)thiosemicarbazide]: the IC50 is over 100 µg/mL.

Still in this series, the particulars now being: Homo sapiens, A-375, 48 h, read-out: IC50, cytotoxicity.
With `O=C(NNC(=S)Nc1c(F)cccc1F)c1ccccc1[N+](=O)[O-]` [Compound 4, 4-(2,6-Difluorophenyl)-1-(2-nitrobenzoyl)thiosemicarbazide], the IC50 is 14.8 µg/mL (≈ 42 µM).

Another series has as its system A549 (human lung carcinoma). Briefly: MTT assay. It counts as cell-based. The settings on record: 24h, read-out: IC50, cytotoxicity. Here is the method:
as §1, §2, §3
Consider `O=C(NNC(=S)Nc1c(F)cccc1F)c1ccccc1[N+](=O)[O-]` [Compound 4, 4-(2,6-Difluorophenyl)-1-(2-nitrobenzoyl)thiosemicarbazide], for which the IC50 was over 100 µg/mL.

The series is the same for the next values; noted with them: 48h, read-out: IC50, cytotoxicity.
As to `O=C(NNC(=S)Nc1c(F)cccc1F)c1ccccc1[N+](=O)[O-]` [Compound 4, 4-(2,6-Difluorophenyl)-1-(2-nitrobenzoyl)thiosemicarbazide], the IC50 was over 100 µg/mL.

In a further series the test system is AGS (human gastric adenocarcinoma). The experiment in a line: MTT assay. The settings on record: 24h, read-out: IC50, cytotoxicity. The series is classed as cell-based. The method, then:
as §1, §2, §3
For `O=C(NNC(=S)Nc1c(F)cccc1F)c1ccccc1[N+](=O)[O-]` [Compound 4, 4-(2,6-Difluorophenyl)-1-(2-nitrobenzoyl)thiosemicarbazide], the IC50 is over 100 µg/mL.

The series is the same for the next values; noted with them: 48 h, read-out: IC50, cytotoxicity.
On to `O=C(NNC(=S)Nc1c(F)cccc1F)c1ccccc1[N+](=O)[O-]` [Compound 4, 4-(2,6-Difluorophenyl)-1-(2-nitrobenzoyl)thiosemicarbazide], for which the concentration for half-maximal inhibition (IC50) was determined as 63.9 µg/mL (≈ 181 µM).

The next series concerns FaDu (squamous cell carcinoma of the pharynx). The experiment in a line: MTT assay. The settings on record: Homo sapiens, 24h, read-out: IC50, cytotoxicity. It counts as cell-based. Here is the method:
as §1, §2, §3
With `O=C(NNC(=S)Nc1c(F)cccc1F)c1ccccc1[N+](=O)[O-]` [Compound 4, 4-(2,6-Difluorophenyl)-1-(2-nitrobenzoyl)thiosemicarbazide], the half-maximal inhibitory concentration (IC50) is over 100 µg/mL.

The same series, now with this note: Homo sapiens, 48 h, read-out: IC50, cytotoxicity.
Regarding `O=C(NNC(=S)Nc1c(F)cccc1F)c1ccccc1[N+](=O)[O-]` [Compound 4, 4-(2,6-Difluorophenyl)-1-(2-nitrobenzoyl)thiosemicarbazide], the IC50 turned out to be 39.2 µg/mL (≈ 111 µM).

For the next series, the system named is HT-29 (colon cancer cell line). Briefly: MTT assay. To be noted: Homo sapiens; HT-29, MTT, 24h; read-out: IC50, cytotoxicity. It counts as cell-based. Here is the method:
as §1, §2, §3
Consider `O=C(NNC(=S)Nc1c(F)cccc1F)c1ccccc1[N+](=O)[O-]` [Compound 4, 4-(2,6-Difluorophenyl)-1-(2-nitrobenzoyl)thiosemicarbazide], for which the half-maximal inhibitory concentration (IC50) was found to be 25 µg/mL (≈ 71 µM).

Staying with this series, now noted: Homo sapiens; HT-29, MTT, 48 h; read-out: IC50, cytotoxicity.
As for `O=C(NNC(=S)Nc1c(F)cccc1F)c1ccccc1[N+](=O)[O-]` [Compound 4, 4-(2,6-Difluorophenyl)-1-(2-nitrobenzoyl)thiosemicarbazide], the IC50 is over 100 µg/mL.

The subject of another series is LS180 (colon cancer cell line). Briefly: MTT assay. It counts as cell-based. To be noted: Homo sapiens, 24h, read-out: IC50, cytotoxicity. The method, then:
as §1, §2, §3
Turning to `O=C(NNC(=S)Nc1c(F)cccc1F)c1ccccc1[N+](=O)[O-]` [Compound 4, 4-(2,6-Difluorophenyl)-1-(2-nitrobenzoyl)thiosemicarbazide], the half-maximal inhibitory concentration (IC50) was over 100 µg/mL.

The same series, now with this note: Homo sapiens, 48 h, read-out: IC50, cytotoxicity.
In the case of `O=C(NNC(=S)Nc1c(F)cccc1F)c1ccccc1[N+](=O)[O-]` [Compound 4, 4-(2,6-Difluorophenyl)-1-(2-nitrobenzoyl)thiosemicarbazide], the IC50 stood at 55.6 µg/mL (≈ 158 µM).

A further series concerns MCF-7 (estrogen-dependent human breast cancer cells). The experiment in a line: MTT assay. The series is classed as cell-based. The settings on record: MCF7, MCF-7, MTT, 24h, read-out: IC50, cytotoxicity. Here is the method: as §1, §2, §3
On to `O=C(NNC(=S)Nc1c(F)cccc1F)c1ccccc1[N+](=O)[O-]` [Compound 4, 4-(2,6-Difluorophenyl)-1-(2-nitrobenzoyl)thiosemicarbazide], for which the half-inhibitory concentration (IC50) is over 100 µg/mL.

The series is the same for the next values; noted with them: MCF7, MCF-7, MTT, 48h, read-out: IC50, cytotoxicity.
Regarding `O=C(NNC(=S)Nc1c(F)cccc1F)c1ccccc1[N+](=O)[O-]` [Compound 4, 4-(2,6-Difluorophenyl)-1-(2-nitrobenzoyl)thiosemicarbazide], the IC50 stood at 19.4 µg/mL (≈ 55.1 µM).

The next series concerns MDA-MB-231 (estrogen-independent human breast cancer cells). Briefly: MTT assay. It counts as cell-based. The settings on record: MDA-MB-231, MTT, 24h, read-out: IC50, cytotoxicity. The method, then:
as §1, §2, §3
Take `O=C(NNC(=S)Nc1c(F)cccc1F)c1ccccc1[N+](=O)[O-]` [Compound 4, 4-(2,6-Difluorophenyl)-1-(2-nitrobenzoyl)thiosemicarbazide]: the IC50 is over 100 µg/mL.

The same series, now with this note: MDA-MB-231, MTT, 48h, read-out: IC50, cytotoxicity.
For the compound `O=C(NNC(=S)Nc1c(F)cccc1F)c1ccccc1[N+](=O)[O-]` [Compound 4, 4-(2,6-Difluorophenyl)-1-(2-nitrobenzoyl)thiosemicarbazide], the concentration for half-maximal inhibition (IC50) amounted to 32.5 µg/mL (≈ 92.2 µM).

The test system of another series is SCC-25 (squamous cell carcinoma of the tongue). Briefly: MTT assay. It counts as cell-based. To be noted: Homo sapiens; SCC-25, MTT, 24h; read-out: IC50, cytotoxicity. Here is the method:
as §1, §2, §3
Take `O=C(NNC(=S)Nc1c(F)cccc1F)c1ccccc1[N+](=O)[O-]` [Compound 4, 4-(2,6-Difluorophenyl)-1-(2-nitrobenzoyl)thiosemicarbazide]: the IC50 is over 100 µg/mL.

The same series, now with this note: Homo sapiens; SCC-25, MTT, 48 h; read-out: IC50, cytotoxicity.
`O=C(NNC(=S)Nc1c(F)cccc1F)c1ccccc1[N+](=O)[O-]` [Compound 4, 4-(2,6-Difluorophenyl)-1-(2-nitrobenzoyl)thiosemicarbazide]: the concentration for half-maximal inhibition (IC50) was 40.9 µg/mL (≈ 116 µM).

The subject of another series is T98G (glioblastoma cells). Briefly: MTT assay. To be noted: Homo sapiens, 24h, read-out: IC50, cytotoxicity. It counts as cell-based. Here is the method: as §1, §2, §3
As for `O=C(NNC(=S)Nc1c(F)cccc1F)c1ccccc1[N+](=O)[O-]` [Compound 4, 4-(2,6-Difluorophenyl)-1-(2-nitrobenzoyl)thiosemicarbazide], the IC50 was found to be 55.5 µg/mL (≈ 157 µM).

Still in this series, the particulars now being: Homo sapiens, 48h, read-out: IC50, cytotoxicity.
As to `O=C(NNC(=S)Nc1c(F)cccc1F)c1ccccc1[N+](=O)[O-]` [Compound 4, 4-(2,6-Difluorophenyl)-1-(2-nitrobenzoyl)thiosemicarbazide], the IC50 is 7.26 µg/mL (≈ 20.6 µM).

Tested on in another series: not given
Experiment: not given
Details: not given
In turn, `O=C(NNC(=S)Nc1c(F)cccc1F)c1ccccc1[N+](=O)[O-]` [Compound 4, 4-(2,6-Difluorophenyl)-1-(2-nitrobenzoyl)thiosemicarbazide] had a melting point of 278 to 280 °C.
